Data taken from ChEMBL document CHEMBL1201862, “PubChem BioAssay data set” (2004).
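In this assay, cells in 96-well plates receive the compound at five concentrations for 48 hours. Endpoints are linearly interpolated between the surrounding concentrations. GI50 is the concentration that inhibits growth by half.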 The source made the active and inactive calls. No stated cut-off is given here; in the data, active = GI50 up to about 1.1 µM and inactive = higher.

Legend:
Experiment in all cases: NCI-60 cell line screen, 48 h
IGROV-1 = system: IGROV-1
UACC-257 = system: UACC-257
SF-539 = system: SF-539
SK-OV-3 = system: SK-OV-3
RXF 393 = system: RXF 393
ACHN = system: ACHN
NCI-H522 = system: NCI-H522
OVCAR-5 = system: OVCAR-5
MDA-MB-231 = system: MDA-MB-231
Malme-3M = system: Malme-3M
DU-145 = system: DU-145
PC-3 = system: PC-3
HCC 2998 = system: HCC 2998
HOP-62 = system: HOP-62
Hs-578T = system: Hs-578T
OVCAR-3 = system: OVCAR-3
HOP-92 = system: HOP-92
U-251 = system: U-251
EKVX = system: EKVX
SNB-19 = system: SNB-19

SMILES | GI50 (IGROV-1) | GI50 (UACC-257) | GI50 (SF-539) | GI50 (SK-OV-3) | GI50 (RXF 393) | GI50 (ACHN) | GI50 (NCI-H522) | GI50 (OVCAR-5) | GI50 (MDA-MB-231) | GI50 (Malme-3M) | GI50 (DU-145) | GI50 (PC-3) | GI50 (HCC 2998) | GI50 (HOP-62) | GI50 (Hs-578T) | GI50 (OVCAR-3) | GI50 (HOP-92) | GI50 (U-251) | GI50 (EKVX) | GI50 (SNB-19)
c1ccc(C2=NOC(c3ccccc3)N2C23CC4CC(CC(C4)C2)C3)cc1 (stereo not given) | > 10 µM (inactive) | 9.73 µM (inactive) | > 10 µM (inactive) | > 10 µM (inactive) | > 10 µM (inactive) | > 10 µM (inactive) | > 10 µM (inactive) | > 10 µM (inactive) | > 10 µM (inactive) | > 10 µM (inactive) | > 10 µM (inactive) | > 10 µM (inactive) | > 10 µM (inactive) | > 10 µM (inactive) | > 10 µM (inactive) | > 10 µM (inactive) | > 10 µM (inactive) | > 10 µM (inactive) | > 10 µM (inactive) | > 10 µM (inactive)
C=C1C(=O)OC2/C=C(\C)C3OC3/C=C(/C(=O)OC)C(OC(C)=O)C(OC(=O)C(C)(O)C(C)OC(C)=O)C12 (stereo not given) | 1.98 µM (inactive) | 0.679 µM (active) | 2.11 µM (inactive) | 18.7 µM (inactive) | 0.501 µM (active) | 3.78 µM (inactive) | 0.284 µM (active) | 5.58 µM (inactive) | 8.93 µM (inactive) | 2.14 µM (inactive) | > 10 µM (inactive) | 3.96 µM (inactive) | 3.83 µM (inactive) | 20.8 µM (inactive) | 6.21 µM (inactive) | 3.13 µM (inactive) | 1.9 µM (inactive) | 3.03 µM (inactive) | 10.5 µM (inactive) | 14.5 µM (inactive)
O=[N+]([O-])O [NITRIC ACID] | > 100 µM (inactive) | > 100 µM (inactive) | > 100 µM (inactive) | > 100 µM (inactive) | > 100 µM (inactive) | > 100 µM (inactive) | > 100 µM (inactive) | > 100 µM (inactive) | > 100 µM (inactive) | > 100 µM (inactive) | > 100 µM (inactive) | > 100 µM (inactive) | > 100 µM (inactive) | > 100 µM (inactive) | > 100 µM (inactive) | > 100 µM (inactive) | > 100 µM (inactive) | > 100 µM (inactive) | > 100 µM (inactive) | > 100 µM (inactive)
Cc1nc(Cl)c(Cl)c(Cl)n1 | 0.173 µM (active) | 0.687 µM (active) | 1.44 µM (inactive) | 3.47 µM (inactive) | 0.495 µM (active) | 0.324 µM (active) | 1.79 µM (inactive) | 1.32 µM (inactive) | 0.276 µM (active) | 0.202 µM (active) | 2.81 µM (inactive) | 0.348 µM (active) | 1.42 µM (inactive) | 0.451 µM (active) | 0.48 µM (active) | 0.146 µM (active) | 0.238 µM (active) | 2.04 µM (inactive) | 0.357 µM (active) | 1.39 µM (inactive)
Oc1ccc2ccccc2c1-c1nnc(CCCCCCCCc2nnc(-c3c(O)ccc4ccccc34)o2)o1 | 0.536 µM (active) | 10.2 µM (inactive) | 1.52 µM (inactive) | 18.1 µM (inactive) | 3.48 µM (inactive) | 0.741 µM (active) | 0.63 µM (active) | 6.32 µM (inactive) | 3.52 µM (inactive) | 3.1 µM (inactive) | 5.08 µM (inactive) | 1.98 µM (inactive) | 4.06 µM (inactive) | 1.59 µM (inactive) | > 84.9 µM (inactive) | 0.314 µM (active) | 9.82 µM (inactive) | 1.05 µM (active) | 4.05 µM (inactive) | 3.53 µM (inactive)
OC(CN(CCCl)CCCl)C(O)C(O)C(O)CN(CCCl)CCCl (stereo not given) | > 100 µM (inactive) | > 100 µM (inactive) | 52.4 µM (inactive) | > 100 µM (inactive) | > 100 µM (inactive) | 2.7 µM (inactive) | 47.3 µM (inactive) | > 100 µM (inactive) | > 100 µM (inactive) | 85.7 µM (inactive) | 71.9 µM (inactive) | > 100 µM (inactive) | > 100 µM (inactive) | > 100 µM (inactive) | > 100 µM (inactive) | > 100 µM (inactive) | > 100 µM (inactive) | 37.4 µM (inactive) | > 100 µM (inactive) | > 100 µM (inactive)
CC(=O)CC(C)(C)NC(=O)[C@@]1(O)CC[C@H]2[C@@H]3CCC4=CC(=O)CC[C@@H]4[C@H]3CC[C@@]21C | > 100 µM (inactive) | > 100 µM (inactive) | > 100 µM (inactive) | > 100 µM (inactive) | > 100 µM (inactive) | > 100 µM (inactive) | > 100 µM (inactive) | > 100 µM (inactive) | > 100 µM (inactive) | > 100 µM (inactive) | > 100 µM (inactive) | > 100 µM (inactive) | > 100 µM (inactive) | > 100 µM (inactive) | > 100 µM (inactive) | > 100 µM (inactive) | > 100 µM (inactive) | > 100 µM (inactive) | > 100 µM (inactive) | > 100 µM (inactive)
